Source: patent US7982057B2, “Compound of stemphones and production thereof” (The Kitasato Institute, priority 2006, dated 2011)
Converted amounts (≈) assume the structure as drawn.

Tests used:
[1] = tested on: methicillin resistant Staphylococcus aureus K24; assay: Enhancing effect for activity of imipenem by paper disk method; assay type: cell-based; conditions: 10 μg disc, 37° C. for 20 hours; for inhibitory zone in the presence of imipenem: MHA medium with imipenem final concentration 10 μg/ml; for inhibitory zone, substance alone: MHA medium without imipenem
Experimental: Biological properties of compound of stemphones of the present invention are described in detail as follows. Method for evaluation of enhancing effect for activity of imipenem by paper disk method
Clinically isolated strain of methicillin resistant Staphylococcus aureus K24 was used as a test organism. Staphylococcus aureus was cultured in Mueller-Hinton broth (2.1% w/v) (DIFCO) at 37° C. for 20 hours, and was suspended corresponding to 0.5 Mc FARLAND (about 10^8 CFU/ml) in the same medium.
Smearing was performed by using sterilized cotton swab (Kawamoto Sangyo K.K., Japan) according to a method of National Committee for Laboratory Standard, NCCLS, U.S.A. Antibacterial activities against test organism on various media were expressed with a unit in mm of a diameter of inhibition zone after incubation with the paper disc (thin disc, […], ADVANTEC Inc.) method at 37° C. for 20 hours.

[2] = tested on: Jurkat cells; assay: Cytotoxicity on Jurkat cells by MTT method; assay type: cell-based; conditions: Homo sapiens, 48 hours
Experimental: Method for Evaluation of Cytotoxicity
Evaluation of cytotoxicity on Jurkat cells were performed by MTT method (Mosmaan, et al. J. Immunol. Methods, 65: 55-63, 1983). Cultured liquid of Jurkat cells were suspended in RPMI-1640 medium (Iwaki & Co., Ltd., Japan) to give suspension with 4×10^5 cells/ml, and the suspension 0.05 ml was seeded in each well of 96 well microplate (Corning Corp.). Subsequently, stemphone D substance, stemphone E substance, stemphone E1 substance, stemphone E2 substance, stemphone E3 substance or stemphone F substance (0.05 ml, 2% methanol/PRMI-1640 medium) was added and incubated at 37° C. for 48 hours in 5% carbon dioxide gas incubator. Then MTT reagent (SIGMA Inc.) dissolved in PBS to give concentration 5.5 mg/ml, 0.01 ml was added and reacted at 37° C. for 4 hours. After the reaction was performed, cell-lysing solution (40%, N-dimethylformamide (Kanto Chemical Co., Inc., Japan), 20% sodiumdodecyl sulfate (Wako Pure Chemical Industries, Ltd., Japan) 2% acetic acid (Kanto Chemical Co., Inc., Japan), 0.03% hydrochloric acid (Kanto Chemical Co., Inc., Japan) in purified water) 0.09 ml was added, and stirred at room temperature for 2 hours, then absorption at 550 nm was measured by using ELx 808 (BIO-TEK Instruments Inc.). As compared with stemphone C substance previously reported by the present inventor (ratio: 1.0), about 4-fold to 60-fold reduction of toxicity were confirmed.

[3] = Solubility in solvent; assay type: physicochemical

Compound | Solubility in methanol and chloroform [3] | Solubility in water [3] | inhibitory zone in the presence of imipenem [1] | inhibitory zone, substance alone [1] | IC50 [2]
C/C=C(\C)C(OC(C)=O)C(C)c1cc(OC)c2c(c1O)OC1(C)CCC3OC(C(C)(C)O)CC(O)C3(C)C1C2O (stereo not drawn) [stemphone E1 substance] | Soluble | insoluble | 15 mm | not observed | 26.2 µg/mL (≈ 46.6 µM)
C/C=C(\C)C(OC(C)=O)C(C)C1=CC(=O)C2=C(OC3(C)CCC4OC(C(C)(C)O)CC(O)C4(C)C3C2O)C1(O)CC(C)=O (stereo not drawn) [stemphone F substance] | Soluble | insoluble | 20 mm | not observed | 2.7 µg/mL (≈ 4.46 µM)
C/C=C(\C)C(OC(C)=O)C(C)C1=CC(=O)C2=C(OC3(C)CCC4OC(C(C)(C)O)CC(O)C4(C)C3C2)C1=O (stereo not drawn) [stemphone D substance] | Soluble | insoluble | 25 mm | not observed | 1.8 µg/mL (≈ 3.39 µM)

Second part, led by results:

Solubility in methanol and chloroform [3] | Solubility in water [3] | Compound | inhibitory zone in the presence of imipenem [1] | inhibitory zone, substance alone [1] | IC50 [2]
Soluble | insoluble | C/C=C(\C)C(OC(C)=O)C(C)c1cc(O)c2c(c1O)OC1(C)CCC3OC(C(C)(C)O)CC(O)C3(C)C1=C2 (stereo not drawn) [stemphone E2 substance] | 22 mm | not observed | 4.4 µg/mL (≈ 8.29 µM)
Soluble | insoluble | C/C=C(\C)C(OC(C)=O)C(C)C1=CC(=O)C2=C(OC3(C)CCC4OC(C(C)(C)O)CC(O)C4(C)C3=C2)C1=O (stereo not drawn) [stemphone E3 substance] | 20 mm | not observed | 2.6 µg/mL (≈ 4.92 µM)
Soluble | insoluble | C/C=C(\C)C(OC(C)=O)C(C)c1cc(O)c2c(c1O)OC1(C)CCC3OC(C(C)(C)O)CC(O)C3(C)C1C2O (stereo not drawn) [stemphone E substance] | 22 mm | not observed | 3.6 µg/mL (≈ 6.56 µM)
